In BigSolDB 2.1:

c1ccc2c(c1)Cc1ccccc1-2
solubility (mole fraction)
Details	in acetone	in benzene	in chloroform	in isobutanol	in n-propanol	in toluene
283 K	0.0445	0.0883	0.0893	0.00425	0.00817	0.063
288 K	0.049	0.0982	0.102	0.00544	0.00903	0.0809
293 K	0.0558	0.109	0.114	0.00691	0.0115	0.0967
298 K	0.0687	0.126	0.132	–	–	0.124
298.4 K	–	–	–	0.00902	0.0134	–
303 K	–	–	–	–	–	0.152
303.1 K	0.0793	–	0.153	–	–	–
303.2 K	–	0.143	–	0.0121	0.0163	–
308 K	–	0.158	–	0.0156	0.0188	0.195
308.2 K	0.0907	–	0.173	–	–	–
313 K	0.104	0.183	0.195	0.0192	0.0215	0.25
318 K	0.12	0.209	0.22	0.023	0.0248	0.3
323 K	0.14	0.235	0.25	0.0267	0.0289	0.37
